Laboratory results taken from PubChem BioAssay (NCI).
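GI50 is the concentration that inhibits growth by half. Definition used: TGI = concentration required for complete inhibition of growth.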

Assays:
Test in all cases: NCI anticancer screen, dose series, 384-well format
[1] = tested on: OVCAR-4 ovarian
[2] = tested on: CAKI-1 renal
[3] = tested on: MOLT-4 leukemia
[4] = tested on: MDA-MB-435 melanoma
[5] = tested on: BT-549 breast
[6] = tested on: NCI-H23 lung
[7] = tested on: SW-620 colon
[8] = tested on: M14 melanoma
[9] = tested on: CCRF-CEM leukemia
[10] = tested on: HCT-116 colon
[11] = tested on: COLO 205 colon
[12] = tested on: HOP-62 NSCLC
[13] = tested on: U251 glioblastoma
[14] = tested on: UACC-257 melanoma
[15] = tested on: NCI/ADR-RES ovarian
[16] = tested on: MDA-MB-231 breast
[17] = tested on: A498 renal
[18] = tested on: OVCAR-8 ovarian
[19] = tested on: PC-3 prostate
[20] = tested on: HT29 colon
[21] = tested on: LOX IMVI melanoma
[22] = tested on: UO-31 renal
[23] = tested on: HCC-2998 colon
[24] = tested on: OVCAR-3 ovarian
[25] = tested on: RXF 393 renal
[26] = tested on: SF-539 CNS
[27] = tested on: ACHN renal
[28] = tested on: HOP-92 NSCLC
[29] = tested on: IGROV1 ovarian
[30] = tested on: TK-10 renal
[31] = tested on: DU-145 prostate
[32] = tested on: SF-295 CNS
[33] = tested on: MALME-3M melanoma
[34] = tested on: OVCAR-5 ovarian
[35] = tested on: NCI-H226 lung
[36] = tested on: SNB-19 CNS
[37] = tested on: SNB-75 CNS
[38] = tested on: MDA-MB-468 breast
[39] = tested on: HCT-15 colon
[40] = tested on: NCI-H322M lung
[41] = tested on: A549 NSCLC
[42] = tested on: RPMI-8226 leukemia
[43] = tested on: SK-MEL-28 melanoma
[44] = tested on: KM12 colon
[45] = tested on: SF-268 CNS
[46] = tested on: UACC-62 melanoma
[47] = tested on: SK-MEL-2 melanoma
[48] = tested on: NCI-H522 lung
[49] = tested on: K-562 leukemia
[50] = tested on: EKVX NSCLC
[51] = tested on: NCI-H460 NSCLC
[52] = tested on: 786-0 renal
[53] = tested on: SK-MEL-5 melanoma
[54] = tested on: HS 578T breast
[55] = tested on: SK-OV-3 ovarian
[56] = tested on: MCF7 breast
[57] = tested on: SN12C renal
[58] = tested on: T-47D breast
[59] = tested on: SR leukemia
[60] = tested on: HL-60(TB) leukemia

Cc1cc(C(=O)N[C@@H](CCC(=O)O)C(=O)O)sc1CC[C@@H]1CNc2nc(N)[nH]c(=O)c2C1
GI50 [1]: 20.6 nM | TGI [1]: 43.5 nM | GI50 [2]: < 10 nM | TGI [2]: < 10 nM | GI50 [3]: < 10 nM | TGI [3]: < 10 nM | GI50 [4]: 18.5 nM | TGI [4]: 36.4 nM | GI50 [5]: 18.3 nM | TGI [5]: 35 nM | GI50 [6]: 39.2 nM | TGI [6]: 157 nM | GI50 [7]: 12.4 nM | TGI [7]: 30.1 nM | GI50 [8]: < 10 nM | TGI [8]: 20.1 nM | GI50 [9]: < 10 nM | TGI [9]: < 10 nM | GI50 [10]: < 10 nM | TGI [10]: 24 nM | GI50 [11]: 25.4 nM | TGI [11]: 56.1 nM | GI50 [12]: 17.9 nM | TGI [12]: 37.8 nM | GI50 [13]: < 10 nM | TGI [13]: < 10 nM | GI50 [14]: 10.2 nM | TGI [14]: 27.7 nM | GI50 [15]: 20.1 nM | TGI [15]: 37.3 nM | GI50 [16]: 345 nM | TGI [16]: 1200 nM | GI50 [17]: < 10 nM | TGI [17]: 14.9 nM | GI50 [18]: 17 nM | TGI [18]: 34.6 nM | GI50 [19]: < 10 nM | TGI [19]: < 10 nM | GI50 [20]: 17.4 nM | TGI [20]: 37.2 nM | GI50 [21]: 20 nM | TGI [21]: 40 nM | GI50 [22]: < 10 nM | TGI [22]: 11.6 nM | GI50 [23]: 33.2 nM | TGI [23]: 1030 nM | GI50 [24]: 19 nM | TGI [24]: 41.2 nM | GI50 [25]: < 10 nM | TGI [25]: 16.2 nM | GI50 [26]: < 10 nM | TGI [26]: 21 nM | GI50 [27]: < 10 nM | TGI [27]: 22.5 nM | GI50 [28]: < 10 nM | TGI [28]: < 10 nM | GI50 [29]: 19.9 nM | TGI [29]: 40 nM | GI50 [30]: < 10 nM | TGI [30]: < 10 nM | GI50 [31]: < 10 nM | TGI [31]: < 10 nM | GI50 [32]: 19.4 nM | TGI [32]: 36.8 nM | GI50 [33]: 20 nM | TGI [33]: 37.2 nM | GI50 [34]: 10.1 nM | TGI [34]: 23.8 nM | GI50 [35]: 17.2 nM | TGI [35]: 39.4 nM | GI50 [36]: < 10 nM | TGI [36]: 23.1 nM | GI50 [37]: < 10 nM | TGI [37]: < 10 nM | GI50 [38]: 19.4 nM | TGI [38]: 41.6 nM | GI50 [39]: 25 nM | TGI [39]: 57.8 nM | GI50 [40]: 20.2 nM | TGI [40]: 39.4 nM | GI50 [41]: 21.5 nM | TGI [41]: 46 nM | GI50 [42]: 18.2 nM | TGI [42]: 36.3 nM | GI50 [43]: 18.4 nM | TGI [43]: 35.9 nM | GI50 [44]: 28.5 nM | TGI [44]: 72.7 nM | GI50 [45]: < 10 nM | TGI [45]: 20.8 nM | GI50 [46]: 21 nM | TGI [46]: 50.1 nM | GI50 [47]: < 10 nM | TGI [47]: 14.7 nM | GI50 [48]: 12.7 nM | TGI [48]: 28.5 nM | GI50 [49]: < 10 nM | TGI [49]: < 10 nM | GI50 [50]: 11.4 nM | TGI [50]: 27.4 nM | GI50 [51]: < 10 nM | TGI [51]: 82.7 nM | GI50 [52]: < 10 nM | TGI [52]: < 10 nM | GI50 [53]: 30.5 nM | TGI [53]: 135 nM | GI50 [54]: 15.8 nM | TGI [54]: 38.2 nM | GI50 [55]: < 10 nM | TGI [55]: 24.5 nM | GI50 [56]: 15.7 nM | TGI [56]: 37 nM | GI50 [57]: < 10 nM | TGI [57]: < 10 nM | GI50 [58]: 21.7 nM | TGI [58]: 60.1 nM

NC(=O)c1ccc2nc(-c3ccc(C4(N)CCC4)cc3)c(-c3ccccc3)n2n1
GI50 [1]: 14600 nM | TGI [1]: 28200 nM | GI50 [2]: 2540 nM | TGI [2]: 16800 nM | GI50 [3]: 305 nM | TGI [3]: 1930 nM | GI50 [4]: 12600 nM | TGI [4]: 25200 nM | GI50 [5]: 2010 nM | TGI [5]: 15200 nM | GI50 [6]: 4850 nM | TGI [6]: 17500 nM | GI50 [59]: 230 nM | TGI [59]: 990 nM | GI50 [7]: 15800 nM | TGI [7]: 29300 nM | GI50 [60]: 4260 nM | TGI [60]: 17000 nM | GI50 [8]: 12800 nM | TGI [8]: 25500 nM | GI50 [9]: 498 nM | TGI [9]: 10700 nM | GI50 [10]: 5690 nM | TGI [10]: 18900 nM | GI50 [11]: 2280 nM | TGI [11]: 16900 nM | GI50 [12]: 12100 nM | TGI [12]: 24500 nM | GI50 [13]: 10400 nM | TGI [13]: 22200 nM | GI50 [14]: 11300 nM | TGI [14]: 23400 nM | GI50 [15]: 15300 nM | TGI [15]: 29300 nM | GI50 [16]: 11400 nM | TGI [16]: 23700 nM | GI50 [17]: 389 nM | TGI [17]: 10600 nM | GI50 [18]: 12800 nM | TGI [18]: 25500 nM | GI50 [19]: 250 nM | TGI [19]: 12800 nM | GI50 [20]: 2620 nM | TGI [20]: 17900 nM | GI50 [21]: 8430 nM | TGI [21]: 20700 nM | GI50 [22]: 2910 nM | TGI [22]: 16000 nM | GI50 [23]: 11200 nM | TGI [23]: 23200 nM | GI50 [24]: 683 nM | TGI [24]: 18000 nM | GI50 [25]: 1600 nM | TGI [25]: 10700 nM | GI50 [26]: 3590 nM | TGI [26]: 16600 nM | GI50 [27]: 11200 nM | TGI [27]: 23300 nM | GI50 [28]: 5020 nM | TGI [28]: 18700 nM | GI50 [29]: 250 nM | TGI [29]: 11700 nM | GI50 [30]: 5700 nM | TGI [30]: 20500 nM | GI50 [31]: 11800 nM | TGI [31]: 24600 nM | GI50 [32]: 944 nM | TGI [32]: 11000 nM | GI50 [33]: 2140 nM | TGI [33]: 17100 nM | GI50 [35]: 8960 nM | TGI [35]: 21500 nM | GI50 [36]: 13000 nM | TGI [36]: 25900 nM | GI50 [37]: 1250 nM | TGI [37]: 14600 nM | GI50 [38]: 125 nM | TGI [38]: 8310 nM | GI50 [39]: 11900 nM | TGI [39]: 24400 nM | GI50 [40]: 9270 nM | TGI [40]: 21600 nM | GI50 [41]: 5310 nM | TGI [41]: 18600 nM | GI50 [42]: 2390 nM | TGI [42]: 10300 nM | GI50 [43]: 6420 nM | TGI [43]: 20200 nM | GI50 [44]: 7110 nM | TGI [44]: 20400 nM | GI50 [45]: 12300 nM | TGI [45]: 24800 nM | GI50 [46]: 3010 nM | TGI [46]: 16400 nM | GI50 [48]: 13700 nM | TGI [48]: 26600 nM | GI50 [49]: 4200 nM | TGI [49]: 16200 nM | GI50 [50]: 5350 nM | TGI [50]: 20300 nM | GI50 [51]: 1130 nM | TGI [51]: 15800 nM | GI50 [52]: 2220 nM | TGI [52]: 13600 nM | GI50 [53]: 3810 nM | TGI [53]: 16300 nM | GI50 [54]: 1780 nM | TGI [54]: 11800 nM | GI50 [55]: 538 nM | TGI [55]: 12700 nM | GI50 [56]: 125 nM | TGI [56]: 12400 nM | GI50 [57]: 8080 nM | TGI [57]: 20900 nM | GI50 [58]: 28.2 nM | TGI [58]: 2990 nM
